Laboratory results from patent US20250042924A1, “WATER-SOLUBLE PHYTIN” (OTSUKA PHARMACEUTICAL CO., LTD., priority 2021, published 2025).

Experiments:
[1] = tested on: rat small intestine powder (enzyme solution); test: Test Example 2 purine nucleotide metabolism inhibitory activity (inosine monophosphate substrate, HPLC); type: biochemical; conditions: 37° C., 30 minutes
Procedure: Ca(OH)2 (Inoue Calcium Corporation) as a calcium source, Mg(OH)2 (Tomita Pharmaceutical Co., Ltd.) as a magnesium source, KOH (NIPPON SODA CO., LTD.) as a potassium source, NaOH (Tosoh Corporation) as a sodium source were placed in a 50 mL PP tube (IWAKI) at molar ratios of the minerals shown in Table 2. Then a commercially available phytic acid solution (product name: phytic acid (IP6), TSUNO Food Industrial co., ltd.) 0.426 mL (containing 0.296 g of phytic acid) was placed therein. Distilled water (Otsuka Pharmaceutical Factory, Inc.) was added thereto to make up the volume to 30 mL. The mixture was stirred for 30 seconds using a vortex mixer, followed by ultrasonication (ASONE) for 60 seconds to prepare a test solution containing phytin with various mineral compositions.
As a positive control, a test solution containing a commercially available phytin (phytin (IP6), TSUNO Food Industrial co., ltd.) was prepared at the same concentration of phytic acid as the other test solutions.
A 100 mg/mL of solution of rat small intestine powder (Clare Japan, Inc.) in the assay buffer was used as an enzyme solution. Inosine monophosphate (Sigma-Aldrich) was diluted with the assay buffer to the concentration of 9 mM to prepare a substrate solution. Enzymatic reaction was performed using a 96 well plate (Thermo Fisher Scientific) in the following manner. […]

[2] = Test Example 4 stability (deliquescence); type: physicochemical; set-up: key: “Deliquesced” refers to a change where the sample completely liquefied to become starch syrup-like; “Partially-deliquesced” refers to a change where a part of the sample deliquesced or solidified.; “No change” refers to a no change in state of the sample; conditions: 200 mg, 25° C., humidity 75.3%, 64 hours
Procedure: Ca(OH)2 (Inoue Calcium Corporation) as a calcium source, Mg(OH)2 (Tomita Pharmaceutical Co., Ltd.) as a magnesium source, KOH (NIPPON SODA CO., LTD.) as a potassium source, NaOH (Tosoh Corporation) as a sodium source were placed in a 50 mL PP tube (IWAKI) at the molar ratios of minerals shown in Table 3. Then a commercially available phytic acid solution (product name: phytic acid (IP6), TSUNO Food Industrial co., ltd.) 0.426 mL (containing 0.296 g of phytic acid) was placed therein. Distilled water (Otsuka Pharmaceutical Factory, Inc.) was added thereto to make up the volume to 30 mL. The mixture was stirred for 30 seconds using a vortex mixer, followed by ultrasonication (ASONE) for 60 seconds. This operation of stirring and ultrasonication was repeated three times in total. Then the mixture was adjusted to pH 4.0±0.2 with hydrochloric acid and pre-frozen at −80° C. The pre-frozen mixture was freeze-dried by using a freeze dryer to provide a completely powdered phytin. The completely powdered phytin was used as a sample.
As positive controls, a sample of phytic acid (powder) prepared following the above procedure without adding any mineral component, and a commercially available phytic acid powder product (product name: Powdered phytic acid, FUSO CHEMICAL CO., LTD.) were used. […]

O=P(O)(O)O[C@H]1[C@H](OP(=O)(O)O)[C@@H](OP(=O)(O)O)[C@H](OP(=O)(O)O)[C@@H](OP(=O)(O)O)[C@H]1OP(=O)(O)O [Phytic acid (PA), phytic acid]
enzyme inhibitory activity [1]: around 30% | Deliquescence [2]: Deliquesced | Deliquescence ([2]; listed as phytic acid sample): deliquesced
